# In PubChem BioAssay AID1963976 (Molecular Pharmacology Branch, DTP, NCI, 2024):
# Test system: 435261-313-R-J1-PDC tumor spheroid viability
# Test: Anticancer human tumor 435261-313-R-J1-PDC patient-derived colon adenocarcinoma cell line growth inhibition [PI3K]
# Settings: spheroids with HUVEC and MSC; for IC50: curve of first compound; for viability, T/C: stronger effect = lower value
# From the text: Combinatorial screen of targeted agents with the PI3K inhibitors inavolisib, alpelisib, duvelisib, and copanlisib in multi-cell type tumor spheroids
# A high-throughput screen of multi-cell type tumor spheroids was designed to identify active combinations of targeted small molecules and PI3K pathway inhibitors. Complex spheroids include a stromal component modeled by human endothelial cells (HUVEC) and fibroblasts modeled by human mesenchymal stem cells (MSCs). The concentration ranges selected for each drug and investigational agent were based upon clinically achievable concentrations if the clinical Cmax of the agent was known.
# Compounds. The drugs and investigational agents: inavolisib (NSC800729), alpelisib (NSC765974), duvelisib (NSC772469), copanlisib (NSC816437), ipatasertib (NSC767898), afuresertib (NSC778305), talazoparib (NSC767125), sapanisertib (NSC764658), selumetinib (NSC741078), tovorafenib (DAY101, NSC766906), vemurafenib (NSC761431), ravoxertinib (NSC781343), sotorasib (NSC818433), MRTX1133 (NSC 836407), abemaciclib (NSC 768073), palbociclib (NSC758247), venetoclax (NSC 766270), SY5609 (NSC837396), enzalutamide (NSC755605), and darolutamide (NSC825331), were obtained from the National Cancer Institute (NCI) Developmental Therapeutics Program Chemical Repository. The FDA-approved anticancer drug set is available from the NCI Developmental Therapeutics Program. […] The stock solutions were prepared in dimethyl sulfoxide (DMSO, Sigma-Aldrich, St. Louis, MO, cat. D2650) at 800-fold the tested concentration and stored at -70 degrees C prior to their use. All drugs and investigational agents were tested over a range starting from a high concentration at or near the clinical Cmax and decreasing in half-log increments. If the clinical Cmax for an agent had not been determined, the highest concentration tested was 10 microM.
# Cell Culture. All cells were maintained in an incubator at 37 degrees C and 5% CO2 with 95% humidity. The PDC lines were cultured according to standard operating procedures established by the NCI PDMR (https://pdmr.cancer.gov/sops/default.htm). All PDCs were thawed and cultured in Matrigel-coated flasks prepared with a working solution of 1X Ham's F-12 nutrient mix, without supplementation (Invitrogen, Waltham, MA, cat. 11765054), 100 U/mL penicillin-streptomycin (Invitrogen, cat. 15140122), and 2.5% Matrigel (Corning Inc., Corning, NY, cat. 354248) for the first three passages. The 354836-022-R-J1-PDC, 475296-252-R-J1-PDC, and 997726-040-R-J2-PDC lines were cultured in 6A media, which includes advanced DMEM/F-12 (Thermo Fisher Scientific, cat. 12634028), 10 mM HEPES (Thermo Fisher Scientific, cat. 15630080), 1X GlutaMAX supplement (Thermo Fisher Scientific, cat. 35050061), 0.1 mg/mL primocin (InvivoGen, San Diego, CA, cat. ant-pm-2), 10% defined fetal bovine serum, heat inactivated (HyClone Laboratories Inc., Logan, UT, cat. SH30070.03HI), 50% L-WRN conditioned media (ATCC, cat. CRL-3276), 1.25 mM N-Acetyl-L-cysteine (Sigma-Aldrich, cat. A9165), 10 mM nicotinamide (Sigma-Aldrich, cat. N0636), 1X B-27 supplement (Thermo Fisher Scientific, cat. 17504044), 1X N-2 supplement (Thermo Fisher Scientific, cat. 17502048), and 10 microM Y-27632 dihydrochloride (Tocris Bioscience, Bristol, United Kingdom, cat. 1254). The 624824-186-R-J2-PDC line was cultured in 6C/Colon 1B media, which includes all 6A media components plus 50 ng/mL human EGF recombinant protein (Thermo Fisher Scientific, cat. PHG0311). […]
# [1] = second compound 0.0316 µM, first compound 0.0316 µM
# [2] = second compound 0.0316 µM, first compound 0.1 µM
# [3] = second compound 0.0316 µM, first compound 0.316 µM
# [4] = second compound 0.0316 µM, first compound 1 µM
# [5] = second compound 0.0316 µM, first compound 3.16 µM
# [6] = second compound 0.0316 µM, first compound 10 µM
# [7] = second compound 0.1 µM, first compound 0.0316 µM
# [8] = second compound 0.1 µM, first compound 0.1 µM
# [9] = second compound 0.1 µM, first compound 0.316 µM
# [10] = second compound 0.1 µM, first compound 1 µM
# [11] = second compound 0.1 µM, first compound 3.16 µM
# [12] = second compound 0.1 µM, first compound 10 µM
# [13] = second compound 0.316 µM, first compound 0.0316 µM
# [14] = second compound 0.316 µM, first compound 0.1 µM
# [15] = second compound 0.316 µM, first compound 0.316 µM
# [16] = second compound 0.316 µM, first compound 1 µM
# [17] = second compound 0.316 µM, first compound 3.16 µM
# [18] = second compound 0.316 µM, first compound 10 µM
# [19] = second compound 1 µM, first compound 0.0316 µM
# [20] = second compound 1 µM, first compound 0.1 µM
# [21] = second compound 1 µM, first compound 0.316 µM
# [22] = second compound 1 µM, first compound 1 µM
# [23] = second compound 1 µM, first compound 3.16 µM
# [24] = second compound 1 µM, first compound 10 µM
smiles,measurement,setting,value
CNC(=O)c1ccc(N2C(=S)N(c3ccc(C#N)c(C(F)(F)F)c3)C(=O)C2(C)C)cc1F + Cc1nc(NC(=O)N2CCCC2C(N)=O)sc1-c1ccnc(C(C)(C)C(F)(F)F)c1,IC50,second compound 0.0316 µM,> 10000 nM
same,IC50,second compound 0.1 µM,> 10000 nM
same,IC50,second compound 0.316 µM,< 31.6 nM
same,IC50,second compound 1 µM,< 31.6 nM
same,IC50,second compound 3.16 µM,< 31.6 nM
same,IC50,second compound 10 µM,< 31.6 nM
same,"viability, T/C",[1],81.8%
same,"viability, T/C",[2],78.2%
same,"viability, T/C",[3],103%
same,"viability, T/C",[4],75%
same,"viability, T/C",[5],93.5%
same,"viability, T/C",[6],84.2%
same,"viability, T/C",[7],70.8%
same,"viability, T/C",[8],52.1%
same,"viability, T/C",[9],71.5%
same,"viability, T/C",[10],61.4%
same,"viability, T/C",[11],83.7%
same,"viability, T/C",[12],77.1%
same,"viability, T/C",[13],27.3%
same,"viability, T/C",[14],59.3%
same,"viability, T/C",[15],46.2%
same,"viability, T/C",[16],61.7%
same,"viability, T/C",[17],75.8%
same,"viability, T/C",[18],45.7%
same,"viability, T/C",[19],26.3%
same,"viability, T/C",[20],30.4%
same,"viability, T/C",[21],24.8%
same,"viability, T/C",[22],37.4%
same,"viability, T/C",[23],23.9%
same,"viability, T/C",[24],25.1%
same,"viability, T/C","second compound 3.16 µM, first compound 0.0316 µM",18.9%
same,"viability, T/C","second compound 3.16 µM, first compound 0.1 µM",17.4%
same,"viability, T/C","second compound 3.16 µM, first compound 0.316 µM",12.7%
same,"viability, T/C","second compound 3.16 µM, first compound 1 µM",17.8%
same,"viability, T/C","second compound 3.16 µM, first compound 3.16 µM",14%
same,"viability, T/C","second compound 3.16 µM, first compound 10 µM",9.85%
same,"viability, T/C","second compound 10 µM, first compound 0.0316 µM",9.39%
same,"viability, T/C","second compound 10 µM, first compound 0.1 µM",8.74%
same,"viability, T/C","second compound 10 µM, first compound 0.316 µM",8.22%
same,"viability, T/C","second compound 10 µM, first compound 1 µM",8.91%
same,"viability, T/C","second compound 10 µM, first compound 3.16 µM",8.18%
same,"viability, T/C","second compound 10 µM, first compound 10 µM",5.56%
Cn1nccc1Nc1nccc(-c2ccn(C(CO)c3ccc(Cl)c(F)c3)c(=O)c2)n1 (centres undefined) + COc1c(OCCCN2CCOCC2)ccc2c3n(c(=NC(=O)c4cnc(N)nc4)nc12)CCN3,IC50,second compound 0.00316 µM,238 nM
same,IC50,second compound 0.01 µM,97.3 nM
same,IC50,second compound 0.0316 µM,< 31.6 nM
same,IC50,second compound 0.1 µM,< 31.6 nM
same,IC50,second compound 0.316 µM,< 31.6 nM
same,IC50,second compound 1 µM,< 31.6 nM
same,"viability, T/C","second compound 0.00316 µM, first compound 0.0316 µM",70.2%
same,"viability, T/C","second compound 0.00316 µM, first compound 0.1 µM",56.1%
same,"viability, T/C","second compound 0.00316 µM, first compound 0.316 µM",47.6%
same,"viability, T/C","second compound 0.00316 µM, first compound 1 µM",32.4%
same,"viability, T/C","second compound 0.00316 µM, first compound 3.16 µM",34.9%
same,"viability, T/C","second compound 0.00316 µM, first compound 10 µM",13.1%
same,"viability, T/C","second compound 0.01 µM, first compound 0.0316 µM",64.3%
same,"viability, T/C","second compound 0.01 µM, first compound 0.1 µM",48.8%
same,"viability, T/C","second compound 0.01 µM, first compound 0.316 µM",38.8%
same,"viability, T/C","second compound 0.01 µM, first compound 1 µM",26.3%
same,"viability, T/C","second compound 0.01 µM, first compound 3.16 µM",22.4%
same,"viability, T/C","second compound 0.01 µM, first compound 10 µM",14.3%
same,"viability, T/C",[1],31.7%
same,"viability, T/C",[2],28.7%
same,"viability, T/C",[3],17.7%
same,"viability, T/C",[4],17.9%
same,"viability, T/C",[5],17.3%
same,"viability, T/C",[6],9.88%
same,"viability, T/C",[7],17.7%
same,"viability, T/C",[8],13.6%
same,"viability, T/C",[9],10.8%
same,"viability, T/C",[10],8.53%
same,"viability, T/C",[11],5.16%
same,"viability, T/C",[12],1.19%
same,"viability, T/C",[13],9.14%
same,"viability, T/C",[14],5.37%
same,"viability, T/C",[15],3.27%
same,"viability, T/C",[16],2.55%
same,"viability, T/C",[17],0.85%
same,"viability, T/C",[18],0.46%
same,"viability, T/C",[19],4.18%
same,"viability, T/C",[20],2.97%
same,"viability, T/C",[21],1.36%
same,"viability, T/C",[22],1.15%
same,"viability, T/C",[23],0.78%
same,"viability, T/C",[24],0.48%
